“Also recorded” adds a separate entry of the source.
Tests used:
[1] = tested on: Experimental Autoimmune Encephalomyelitis (EAE); assay: Mouse Experimental Autoimmune Encephalomyelitis (EAE) model, clinical score; assay type: in vivo, C57B1.6 mice; settings: 10 mg/kg s.c. three times weekly from day 0; day 13, 14, 16, 17, 19, 21 and 26
[2] = biological target: protein-protein interaction between oligomeric amyloid-β and PrP^c (Homo sapiens, UniProt P04156); assay type: binding
[3] = tested on: human primary cell-based systems; assay: BioMAP Diversity PLUS panel (whole panel, profile and similarity analysis)
Text: (§1) In this study LMW-DS was characterized by profiling in the BioMAP® Diversity PLUS panel. The BioMAP® panel consists of human primary cell-based systems designed to model different aspects of the human body in an in vitro format. The 12 systems in the BioMAP® Diversity PLUS panel (Table 32) allow test agent characterization in an unbiased way across a broad set of systems modeling various human disease states. The BioMA®P systems are constructed with one or more primary cell types from healthy human donors, with stimuli, such as cytokines or growth factors, added to capture relevant signaling networks that naturally occur in human tissue or pathological conditions. Vascular biology is modeled in both a Th1 (3C system) and a Th2 (4H system) inflammatory environment, as well as in a Th1 inflammatory state specific to arterial smooth muscle cells (CASM3C system). Additional systems recapitulate aspects of the systemic immune response including monocyte-driven Th1 inflammation (LPS system) or T cell stimulation (SAg system), chronic Th1 inflammation driven by macrophage activation (IMphg system) and the T cell-dependent activation of B cells that occurs in germinal centers (BT system). The BE3C system (Th1) and the BF4T system (Th2) represent airway inflammation of the lung, while the MyoF system models myofibroblast-lung tissue remodeling. Lastly, skin biology is addressed in the KF3CT system modeling Th1 cutaneous inflammation and the HDF3CGF system modeling wound healing.
Each test agent generates a signature BioMAP® profile that is created from the changes in protein biomarker readouts within individual system environments. Biomarker readouts (7-17 per system) are selected for therapeutic and biological relevance, are predictive for disease outcomes or specific drug effects and are validated using agents with known mechanism of action (MoA). Each readout is measured quantitatively by immune-based methods that detect protein, e.g., ELISA, or functional assays that measure proliferation and viability. BioMAP® readouts are diverse and include cell surface receptors, cytokines, chemokines, matrix molecules and enzymes. In total, the BioMAP® Diversity PLUS panel contains 148 biomarker readouts that capture biological changes that occur within the physiological context of the particular BioMAP® system.
(§2) Four concentrations of LMW-DS (150 nM, 440 nM, 1.3 μM, 4 μM) were investigated in the BioMAP® Diversity PLUS panel by Eurofins.
Human primary cells in BioMAP systems are used at early passage (passage 4 or earlier) to minimize adaptation to cell culture conditions and preserve physiological signaling responses. All cells are from a pool of multiple donors (n=2-6), commercially purchased and handled according to the recommendations of the manufacturers. Human blood derived CD14^+ monocytes are differentiated into macrophages in vitro before being added to the /Mphg system. Abbreviations are used as follows: Human umbilical vein endothelial cells (HUVEC), Peripheral blood mononuclear cells (PBMC), Human neonatal dermal fibroblasts (HDFn), B cell receptor (BCR), T cell receptor (TCR) and Toll-like receptor (TLR).
(§3) Cell types and stimuli used in each system are as follows: 3C system [HUVEC+(IL-1β, TNFα and IFNγ)], 4H system [HUVEC+(IL-4 and histamine)], LPS system [PBMC and HUVEC+LPS (TLR4 ligand)], SAg system [PBMC and HUVEC+TCR ligands], BT system [CD19^+ B cells and PBMC+(a-IgM and TCR ligands)], BF4T system [bronchial epithelial cells and HDFn+(TNFα and IL-4)], BE3C system [bronchial epithelial cells+(IL-1β, TNFα and IFNγ)], CASM3C system [coronary artery smooth muscle cells+(IL-1β, TNFα and IFNγ)], HDF3CGF system [HDFn+(IL-1β, TNFα, IFNγ, EGF, bFGF and PDGF-BB)], KF3CT system [keratinocytes and HDFn+(IL-1β, TNFα, IFNγ and TGFβ)], MyoF system [differentiated lung myofibroblasts+(TNFα and TGFβ)] and /Mphg system [HUVEC and M1 macrophages+Zymosan (TLR2 ligand)].
Systems are derived from either single cell types or co-culture systems. […]

[4] = tested on: 3C system [HUVEC+(IL-1β, TNFα and IFNγ)]; assay: BioMAP 3C system; assay type: cell-based, Human
Text: In this study LMW-DS was characterized by profiling in the BioMAP® Diversity PLUS panel. The BioMAP® panel consists of human primary cell-based systems designed to model different aspects of the human body in an in vitro format. The 12 systems in the BioMAP® Diversity PLUS panel (Table 32) allow test agent characterization in an unbiased way across a broad set of systems modeling various human disease states. The BioMA®P systems are constructed with one or more primary cell types from healthy human donors, with stimuli, such as cytokines or growth factors, added to capture relevant signaling networks that naturally occur in human tissue or pathological conditions. […]
Systems are derived from either single cell types or co-culture systems. […] Test agents prepared in either DMSO (small molecules; final concentration 0.1%) or PBS (biologics) are added at the indicated concentrations 1-hr before stimulation, and remain in culture for 24-hrs or as otherwise indicated (48-hrs, MyoF system; 72-hrs, BT system (soluble readouts); 168-hrs, BT system (secreted IgG)). […] Soluble factors from supernatants are quantified using either HTRF® detection, bead-based multiplex immunoassay or capture ELISA. Overt adverse effects of test agents on cell proliferation and viability (cytotoxicity) are detected by sulforhodamine B (SRB) staining, for adherent cells, and alamarBlue® reduction for cells in suspension. […]

[5] = tested on: BT system [CD19^+ B cells and PBMC+(a-IgM and TCR ligands)]; assay: BioMAP BT system; assay type: cell-based, Human
Text: as §1, §2, §3
Systems are derived from either single cell types or co-culture systems. Adherent cell types are cultured in 96 or 384-well plates until confluence, followed by the addition of PBMC (SAg and LPS systems). The BT system consists of CD19+ B cells co-cultured with PBMC and stimulated with a BCR activator and low levels of TCR stimulation. Test agents prepared in either DMSO (small molecules; final concentration 0.1%) or PBS (biologics) are added at the indicated concentrations 1-hr before stimulation, and remain in culture for 24-hrs or as otherwise indicated (48-hrs, MyoF system; 72-hrs, BT system (soluble readouts); 168-hrs, BT system (secreted IgG)). Each plate contains drug controls (e.g., legacy control test agent colchicine at 1.1 μM), negative controls (e.g., non-stimulated conditions) and vehicle controls (e.g., 0.1% DMSO) appropriate for each system. Direct ELISA is used to measure biomarker levels of cell-associated and cell membrane targets. Soluble factors from supernatants are quantified using either HTRF® detection, bead-based multiplex immunoassay or capture ELISA. Overt adverse effects of test agents on cell proliferation and viability (cytotoxicity) are detected by sulforhodamine B (SRB) staining, for adherent cells, and alamarBlue® reduction for cells in suspension. For proliferation assays, individual cell types are cultured at subconfluence and measured at time points optimized for each system (48-hrs: 3C and CASM3C systems; 72-hrs: BT and HDF3CGF systems; 96-hrs: SAg system). […]

Substance: low molecular weight dextran sulfate [LMW-DS]
- mean EAE score vs vehicle control [1]: significantly (#) lower mean score; also recorded: significantly lower mean score
- Competable binding (%) [2]: 85 ± 4%
- Hill coefficient [2]: 1.00 ± 0.21
- IC50 [2]: 0.42 ± 0.16 µg/mL
- competition for the protein-protein interaction (in words) [2]: in a concentration dependent manner as did LMW-DS
- CD69 ([3]; 150 nM to 4 μM): increased
- EGFR ([3]; 150 nM to 4 μM): increased
- Eotaxin 3 (Eot3) ([3]; 150 nM to 4 μM): increased
- I-TAC ([3]; 150 nM to 4 μM): decreased
- IL-8 ([3]; 150 nM to 4 μM): increased
- IP-10 ([3]; 150 nM to 4 μM): decreased
- M-CSF ([3]; 150 nM to 4 μM): decreased
- MCP-1 ([3]; 150 nM to 4 μM): decreased
- MIG ([3]; 150 nM to 4 μM): decreased
- MMP-1 ([3]; 150 nM to 4 μM): increased
- PAI-1 ([3]; 150 nM to 4 μM): increased
- VCAM-1 ([3]; 150 nM to 4 μM): decreased
- cytotoxicity for human primary cells ([3]; 150 nM to 4 μM): not cytotoxic; also recorded: noncytotoxic
- sTNFα ([3]; 150 nM to 4 μM): decreased
- secreted immunoglobulin G (sIgG) ([3]; 150 nM to 4 μM): decreased
- thrombomodulin (TM) ([3]; 150 nM to 4 μM): increased
- uPAR ([3]; 150 nM to 4 μM): increased
- annotated readouts in BioMAP profile ([3]; 150 nM, 440 nM, 1.3 μM, 4 μM): 25
- proliferation of human primary endothelial cells ([3]; top concentration only (4 μM)): modestly and selectively antiproliferative
- Increased biomarker activity [4]: IL-8
- IL-17A [5]: decreased
- IL-17F [5]: decreased
- antiproliferative effects on B cells [5]: without any antiproliferative effects
- sIgG [5]: decreased
- Decreased biomarker activity ([5]; BT system): sIgG, sIL-17F
- Increased biomarker activity ([5]; BT system): sIL-17A

Source: patent US11534457B2, “Use of dextran sulfate” (priority 2017, dated 2022)
